Like-named read-outs stand apart in the source and are kept apart here.
Key:
Serracia sp. = conditions: 200 ppm gNO until substantially eradicated; cited from earlier work
[1] = test system: bovine respiratory disease; conditions: intermittent 30 minute exposures of gNO, cattle; cited from earlier work
Klebsiella sp. #1 = conditions: 200 ppm gNO until substantially eradicated; cited from earlier work
S. aureus (Clinical) = conditions: 200 ppm gNO until substantially eradicated; cited from earlier work
MRSA = conditions: 200 ppm gNO until substantially eradicated; cited from earlier work
[2] = test system: chronic, non-healing wound; conditions: topical 200 ppm gNO, cited from earlier work
Group B Streptococci = conditions: 200 ppm gNO until substantially eradicated; cited from earlier work
S. aureus (ATCC) = conditions: 200 ppm gNO until substantially eradicated; cited from earlier work
S. maltophilia = conditions: 200 ppm gNO until substantially eradicated; cited from earlier work
[3] = test system: Pseudomonas aeruginosa pneumonia; conditions: 160 ppm gNO, intermittent 30 minute exposures, rat; cited from earlier work
[4] = cited from earlier work
microorganisms = assay: In vitro exposure to 200 ppm gNO, average over all microorganisms of Table 1; type: cell-based; conditions: average of the 15 microorganisms
Source text: In vitro studies of the antimicrobial and antiviral effect of gNO have shown that the viability and vitality of viruses, bacteria and fungi decreases to a point of substantial eradication after the pathogen has been exposed to a certain amount of nitric oxide over a certain period of time. This amount, which can be referred to as the effective amount, can be estimated in terms of the concentration of NO in the gas mixture contacted with the pathogen, times the duration of the exposure. For example, the effective amount can be estimated in units of ppm-time-hour, or ppm-hour. Table 1 presents experimental data gathered for microorganisms exposed to 200 ppm gNO until the microorganisms are substantially eradicated*.

[5] = healthy humans, cited from earlier work
Candida albicans = conditions: 200 ppm gNO until substantially eradicated; cited from earlier work
[6] = rats, cited from earlier work
MRSA biofilm = conditions: 200 ppm gNO for eight hours (1,600 ppm hours); cited from earlier work
Acinetobader sp. = conditions: 200 ppm gNO until substantially eradicated; cited from earlier work
Klebsiella sp. #3 = conditions: 200 ppm gNO until substantially eradicated; cited from earlier work
E. coli = conditions: 200 ppm gNO until substantially eradicated; cited from earlier work
Mycobacterium smegmatis = conditions: 200 ppm gNO until substantially eradicated; cited from earlier work
[7] = Prospective phase I open label safety study of inhaled 160 ppm gNO in healthy adults; type: in vivo, human; conditions: 160 ppm gNO for 30 minutes, five times a day
P. aeruginosa (ATCC) = conditions: 200 ppm gNO until substantially eradicated; cited from earlier work
Klebsiella sp.#2 = conditions: 200 ppm gNO until substantially eradicated; cited from earlier work
Enterobacter sp. = conditions: 200 ppm gNO until substantially eradicated; cited from earlier work
[8] = rats, gNO concentrations below 200 ppm, 6 hours/day for 28 days; cited from earlier work
[9] = test system: five planktonic species of methicillin resistant S. aureous (MRSA); conditions: exposure to 1,600 ppm hours of gNO; cited from earlier work
[10] = 400 ppm gNO, first day of exposure
[11] = 500 ppm gNO, first day of exposure
[12] = five consecutive days, healthy adults

[N]=O [gNO, nitric oxide]
Effective amount in ppm-hour (Serracia sp.): 1200 ppm-hour
clinical symptoms of bovine respiratory disease [1]: shown to decrease the clinical symptoms
Effective amount in ppm-hour (Klebsiella sp. #1): 1200 ppm-hour
Effective amount in ppm-hour (S. aureus (Clinical)): 800 ppm-hour
Effective amount in ppm-hour (MRSA): 1000 ppm-hour
wound size reduction ([2]; at one week): 42%
presence of biofilm ([2]; within the first three days of treatment): no longer visibly present
Effective amount in ppm-hour (Group B Streptococci): 400 ppm-hour
Effective amount in ppm-hour (S. aureus (ATCC)): 800 ppm-hour
Effective amount in ppm-hour (S. maltophilia): 800 ppm-hour
pulmonary bioburden and leukocyte infiltration [3]: effective to reduce the pulmonary bioburden and leukocyte infiltration
half-life in the body ([4]; in vivo): less than 6 seconds
radius of action from its site of origin ([4]; in vivo): approximately 200 microns
nitrate excreted in the urine, share of the nitric oxide dose inhaled ([4]; predominant metabolite nitrate): more than 70%
Effective amount in ppm-hour, Average (microorganisms): 1013.33 ppm-hour
levels of MetHb ([5]; inhalation of gNO at 128 ppm for 3 hours): > 5%
levels of MetHb ([5]; inhalation of gNO at 512 ppm for 55 minutes): > 5%
Effective amount in ppm-hour (Candida albicans): 800 ppm-hour
mortality ([6]; 300 ppm gNO, groups of 10 rats): Six of the animals treated with 300 ppm gNO died during the first 1-2 days
MetHb levels [6, 10]: 72.5 percents
mortality [6, 10]: all of the animals died
MetHb levels [6, 11]: 67 percents
mortality [6, 11]: all of the animals died
MRSA in biofilm (MRSA biofilm): shown to reduce MRSA
Effective amount in ppm-hour (Acinetobader sp.): 1200 ppm-hour
Effective amount in ppm-hour (Klebsiella sp. #3): 1200 ppm-hour
Effective amount in ppm-hour (E. coli): 1000 ppm-hour
Effective amount in ppm-hour (Mycobacterium smegmatis): 2000 ppm-hour
Forced expiratory volume in 1 sec (FEV1) percentage and other lung function parameters [7, 12]: improved
adverse events [7, 12]: neither significant adverse events nor adverse events attributable to gNO inhalation occurred
methemoglobin levels [7, 12]: 0.9%
tolerability [7, 12]: all individuals tolerated the gNO treatment courses well
serum nitrites/nitrates, prothrombin, pro-inflammatory cytokine and chemokine levels ([7]; baseline versus day 5): did not differ between baseline and day 5
Effective amount in ppm-hour (P. aeruginosa (ATCC)): 600 ppm-hour
Effective amount in ppm-hour (Klebsiella sp.#2): 1000 ppm-hour
Effective amount in ppm-hour (Enterobacter sp.): 1200 ppm-hour
mortality [8]: No deaths occurred
population of MRSA planktonic strains [9]: A reduction in the population of all five MRSA planktonic strains was observed

— patent US10039781B2, “Pulse inhalation of nitric oxide for treating respiratory diseases” (Advanced Inhalation Therapies (AIT) Ltd., priority 2015, dated 2018)
